Experimental data reported in ChEMBL document CHEMBL2046398, “Optimization of (2,3-dihydro-1-benzofuran-3-yl)acetic acids: discovery of a non-free fatty acid-like, highly bioavailable G protein-coupled receptor 40/free fatty acid receptor 1 agonist as a glucose-dependent insulinotropic agent” (J Med Chem, 2012).

Experiments:
Conditions in all cases: in vivo; call rule not given here
[1] = species: Canis familiaris; assay: Drug metabolism in dog assessed as acyl glucuronide derivative formation measured in feces; format: ADME, organism-based, Canis lupus familiaris
[2] = species: Rattus norvegicus; assay: Drug metabolism in rat assessed as acyl glucuronide derivative formation in bile; format: ADME, organism-based
[3] = species: Rattus norvegicus; assay: Drug metabolism in rat assessed as biphenylylcarboxylic acid derivative formation; format: ADME, organism-based
[4] = species: Rattus norvegicus; assay: Drug metabolism in rat assessed as taurine conjugate formation measured in feces; format: ADME, organism-based
[5] = species: Canis familiaris; assay: Drug metabolism in dog assessed as taurine conjugate formation measured in feces; format: ADME, organism-based, Canis lupus familiaris
[6] = species: Rattus norvegicus; assay: Drug metabolism in rat assessed as beta-oxidation derivative formation; format: ADME, organism-based
[7] = species: Canis familiaris; assay: Drug metabolism in dog assessed as biphenylylcarboxylic acid derivative formation measured in feces; format: ADME, organism-based, Canis lupus familiaris
[8] = species: Rattus norvegicus; assay: Drug metabolism in rat assessed as acyl glucuronide derivative formation measured in feces; format: ADME, organism-based
[9] = species: Rattus norvegicus; assay: Drug metabolism in rat assessed as biphenylylcarboxylic acid derivative formation in feces; format: ADME, organism-based
[10] = species: Rattus norvegicus; assay: Drug metabolism in rat assessed as taurine conjugate formation measured in bile; format: ADME, organism-based
[11] = species: Canis familiaris; assay: Drug metabolism in dog assessed as beta-oxidation derivative formation; format: ADME, organism-based, Canis lupus familiaris

Drug metabolism [1]: Active
Drug metabolism [2]: Active
Drug metabolism [3]: Active
Drug metabolism [4]: Active
Drug metabolism [5]: Active
Drug metabolism [6]: Not Active
Drug metabolism [7]: Active
Drug metabolism [8]: Active
Drug metabolism [9]: Active
Drug metabolism [10]: Active
Drug metabolism [11]: Not Active
SMILES: Cc1cc(OCCCS(C)(=O)=O)cc(C)c1-c1cccc([14CH2]Oc2ccc3c(c2)OC[C@H]3CC(=O)O)c1
